# In patent US20150352134A1, “COMPOSITION FOR TOPICAL SKIN APPLICATION CONTAINING GINSENOSIDE F2 DERIVED FROM HYDROPONIC GINSENG” (AMOREPACIFIC CORPORATION, priority 2012, published 2015):
# Columns and labels:
# tyrosinase = assay: Tyrosinase expression in melanocytes (Western Blot); type: cell-based; conditions: 501me1 cell line, IBMX 100 μM, ginsenoside 10 ppm
# Protocol: (§1) 501me1 cell line is injected in each well of a 6-well microtiter plate at a rate of 500,000 cells/well. The cell line in each well is treated with 0.1% of DMSO as the negative control group, 100 μM of IBMX as the positive control group, or ginsenoside 10 ppm of F2 as the test group, and cultured at 37° C. for 24 hours, 48 hours, or 72 hours, to obtain proteins. The proteins thus obtained are subjected to Western Blot using MITF and tyrosinase antibodies. Protein extraction and Western Blot are performed using the standard methods known in the art.
# [1] = tested on: procollagen type (I) in fibroblasts; assay: Collagen biosynthesis in fibroblasts (procollagen type (I) ELISA); type: cell-based; conditions: 10 ng/ml, 24 hours; non-treated group = 100%
# Protocol: The ginsenoside F2 of the present invention is compared with TGF-β in regards to the effect of promoting biosynthesis of collagen. Firstly, fibroblasts are seeded in 24 wells at a rate of 10^5 per well and cultured until the growth reaches 90%. The fibroblasts are cultured in a non-serum culture medium for 24 hours, treated with each 10 ng/ml of ginsenoside F2 or TGF-β dissolved in the non-serum culture medium, and then cultured in a CO2 incubator for 24 hours. The supernatant liquid is collected to determine an increase or decrease of procollagen using a procollagen type (I) ELISA kit. The collagen synthesis ability is denoted with respect to 100% for the non-treated group.
# elastase type III = target: T1, elastase type III (Sus scrofa, UniProt P00772); assay: Elastase inhibitory effect; type: biochemical; conditions: EGCG 250 μM; 25° C., 15 minutes, absorbance 415 nm
# T1 construct: purchased Sigma-Aldrich E0127
# T1 sequence (P00772 27-266): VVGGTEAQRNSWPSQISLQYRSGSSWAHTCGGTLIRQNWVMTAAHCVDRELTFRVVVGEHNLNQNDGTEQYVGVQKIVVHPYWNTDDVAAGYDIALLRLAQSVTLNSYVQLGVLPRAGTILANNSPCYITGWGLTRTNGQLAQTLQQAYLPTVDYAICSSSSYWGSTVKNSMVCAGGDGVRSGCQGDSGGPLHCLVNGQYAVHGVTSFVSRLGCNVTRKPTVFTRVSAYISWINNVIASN
# Protocol: The elastase inhibitory function of the ginsenoside F2 is measured in comparison with that of EGCG. The elastase and the substrate used herein are purchased from Sigma-Aldrich, U.S.A. (Cat. No. E0127).
# The elastase inhibitory function is measured according to the following method.
# In a 96-well plate, ginsenoside F2 (200 μL) and 50 μL of a 20 μg/mL elastase type III solution are mixed with a […] tris-HCL buffer solution (pH 8.0). The positive control is EGCG 250 μM, and the negative control which is a non-treated group is distilled water. Then, 100 μL of 0.4514 mg/mL N-succinyl-ala-ala-ala-p-nitroanilide prepared with the buffer solution is added to the mixture and allowed to react at 25° C. for 15 minutes. After completion of the reaction, the absorbance at 415 nm was measured. The blank test is performed in the same manner as described above to achieve calibration verification.
# The elastase inhibitory function is calculated according to the following mathematical formula 1, and the results are presented in Table 2.
# Elastase inhibition rate (%)={1−(C−D)/(A−B)}×100 [Mathematical Formula 1]
# A: Absorbance at 415 nm with enzyme and no test substance.
# B: Absorbance at 415 nm with no test substance and no enzyme.
# C: Absorbance at 415 nm with test substance and enzyme.
# D: Absorbance at 415 nm with test substance and no enzyme.
# MITF = MITF expression in melanocytes (Western Blot); type: cell-based; conditions: 501me1 cell line, IBMX 100 μM, ginsenoside 10 ppm
# Protocol: as §1
# [2] = tested on: mouse with vitiligo (C57b1/6-Mitf^mi-vit); assay: Grey hair prevention: melanin in newly grown hair of mouse with vitiligo; type: in vivo; conditions: applied twice a day, about 3 weeks, 50 mM IBMX, 2.5% ginsenoside F2
# Protocol: A mouse with vitiligo (C57b1/6-Mitf^mi-vit) is purchased from The Jackson Lab in U.S.A. The testing method on the grey hair inhibitory effect using a mouse with lots of grey hair is carried out as follows. A 12-week old mouse is subjected to depilation on the back side. The area of the depilated region is controlled to be the same to every object. From the next day of the depilation, the grey hair inhibitory substances are applied on the depilated region twice a day. The vehicle for the grey hair inhibitory substances is the mixture of EtOH, 1,3-BG and DW (3:2:5 in volume ratio). The liquid containing the vehicle alone is the negative control, the liquid containing the vehicle in combination with 50 mM IBMX is the positive control, and the liquid containing the vehicle in combination with 2.5% ginsenoside F2 is the test group. When the difference in the grey hair inhibitory effect between the substances is visually recognizable in about 3 weeks, the newly grown hair is collected to measure the quantity of melanin produced in the hair. The quantity of melanin in the hair is measured using esperase (Novozyme) strains that are a protein hydrolase. Esperase is dissolved in a buffer solution (50 mM tris-HCl, 5 mM DTT, pH 9.3) to a concentration of 1 NPU/ml to prepare a reaction buffer. 5 mg of mouse hair is put in 1 ml of the reaction buffer, which is stirred at a speed of 1,000 rpm at 37° C. for 13 hours to cause the reaction and then subjected to a momentary centrifugal isolation to separate the reactant solution from hair. The reactant solution thus obtained is placed in each well of a 96-well plate, and the absorbance at 405 nm is measured to determine the amount of melanin in the reactant solution. When a mouse with vitiligo and lots of grey hair is treated with the negative control substance, the positive control substance, or the test substance, the efficacies are visually observed, and the melanin in hair is quantitatively analyzed.
# [3] = tested on: potassium ion channels (KATP channels); assay: KATP channel opener test: recovery of NIH3T3 proliferation blocked by tolbutamide (WST-1); type: cell-based, mouse; conditions: 48 hours
# Text: Minoxidil, a treatment for hair loss, is known as a potassium ion channel opener (KATP channel opener) potentially acting on mitochondria and a representative drug used for treatment of androgenic alopecia (hair loss). A testing method used to evaluate the action of minoxidil includes treating with tolbutamide (SIGMA-ALDRICH, T0891) blocking the potassium ion channels (KATP channels) in fibroblasts constituting the corium of scalp to inhibit cell proliferation and then opening the potassium ion channels (KATP channels) to resume the cell proliferation. In order to evaluate the function of the composition of the present invention as a KATP channel opener, the present invention uses a mouse embryonic fibroblast cell line, NIH3T3, as fibroblasts. The cell line is obtained by naturally immortalizing a fibroblast cell line isolated from an NIH Swiss mouse embryo with 3T3 protocol. The cell line is cultured with DMEM (Dulbecco's modified eagle's medium, Gibco BRL, Gaithersburg, Md., U.S.A.) containing 10% FBS (Fetal Bovine Serum) in an incubator under the conditions of 5% CO2 and 37° C. for 24 hours.
# [4] = 2.5 ppm after 2.5 mM tolbutamide
# [5] = 10 ppm after 2.5 mM tolbutamide
Compound,"Tyrosinase (Western Blot, in comparison with 100 of the negative control group) (tyrosinase; 24 hrs)","Tyrosinase (Western Blot, in comparison with 100 of the negative control group) (tyrosinase; 48 hrs)","Tyrosinase (Western Blot, in comparison with 100 of the negative control group) (tyrosinase; 72 hrs)",Collagen synthesis ability (%) [1] [%],Inhibition rate (%) (elastase) (elastase type III),"MITF (Western Blot, in comparison with 100 of the negative control group) (MITF; 24 hrs)","MITF (Western Blot, in comparison with 100 of the negative control group) (MITF; 48 hrs)","MITF (Western Blot, in comparison with 100 of the negative control group) (MITF; 72 hrs)",Amount of melanin (%) with respect to control [2] [%],"Cell proliferation ability (%) [3, 4] [%]",Cell proliferation ability (%) ([3]; 5 ppm after 2.5 mM tolbutamide),"Cell proliferation ability (%) [3, 5] [%]"
"CC(C)=CCC[C@](C)(O[C@@H]1O[C@H](CO)[C@@H](O)[C@H](O)[C@H]1O)[C@H]1CC[C@]2(C)[C@@H]1[C@H](O)C[C@@H]1[C@@]3(C)CC[C@H](O[C@@H]4O[C@H](CO)[C@@H](O)[C@H](O)[C@H]4O)C(C)(C)[C@@H]3CC[C@]12C [Ginsenoside F2, ginsenoside F2]",150,182,211,191.6,78,92,120,162,110.8,115,120,131
CC(C)=CCC[C@](C)(O[C@@H]1O[C@H](CO[C@@H]2O[C@H](CO)[C@@H](O)[C@H](O)[C@H]2O)[C@@H](O)[C@H](O)[C@H]1O)[C@H]1CC[C@]2(C)[C@@H]1[C@H](O)C[C@@H]1[C@@]3(C)CC[C@H](O[C@@H]4O[C@H](CO)[C@@H](O)[C@H](O)[C@H]4O[C@@H]4O[C@H](CO)[C@@H](O)[C@H](O)[C@H]4O)C(C)(C)[C@@H]3CC[C@]12C [Ginsenoside Rb1],149,165,189,188.3,71,93,116,144,107.1,113,117,124
